Measurements reported in PMC4818757, “Small molecule inhibitors of the Dishevelled‐CXXC5 interaction are new drug candidates for bone anabolic osteoporosis therapy” (EMBO Molecular Medicine, 2016).

Experiments:
Dvl PDZ domain [1] = molecular target: T1, Dvl PDZ domain (Homo sapiens, UniProt O14640); assay: Surface plasmon resonance; format: binding
T1 construct: plasmid DNA encoding Dvl-1247- 341 (the Dvl PDZ domain); His-tag (TEV-cleavable) (cleaved yes); made in house; host or cells: E. coli BL21 (DE3)
T1 sequence (O14640 247-341 limits assumed): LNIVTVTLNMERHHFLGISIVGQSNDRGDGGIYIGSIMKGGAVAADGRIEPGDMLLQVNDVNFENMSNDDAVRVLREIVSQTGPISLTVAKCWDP
Method: Studies on the interaction between compounds and Dvl PDZ domain were performed by surface plasmon resonance spectroscopy using the ProteOn™ XPR36 protein interaction array system (Bio‐Rad Laboratories, Inc., Hercules, CA). Purified Dvl PDZ domain was immobilized on a sensor chip, and then, various concentration of KY‐02327 in ProteOn PBS/Tween running buffer (PBS, pH 7.4 with 0.05% Tween 20) was flowed over the chip at a flow rate of 100 μl/min. The refractive index reflecting the mass concentration on the sensor surface is measured according to the manufacturer's instruction. Data were analyzed using ProteOn Manager Software 2.0 (Bio‐Rad Laboratories, Inc.).

Dvl PDZ domain [2] = molecular target: T1, Dvl PDZ domain; assay: Fluorescence quenching of Dvl PDZ domain; settings: read-out: binding affinity between Dvl PDZ domain and compound
Method: Figure 4 Binding of KY‐02327, a KY‐02061 analog, on Dvl PDZ domain • A The chemical structure of KY‐02327. • B A competition curve for the Dvl–CXXC5 interaction by KY‐02327. • C Fluorescence quenching plot of Dvl PDZ domain upon addition of different amounts of KY‐02327. From top to bottom, final molar ratio between Dvl PDZ and KY‐02327 was 1:0, 1:1, 1:2, 1:3, 1:4, 1:5, 1:6, 1:7, 1:8, 1:9, 1:10, 1:15, 1:20, and 1:25, respectively. • D–F ^1H‐^15N‐HSQC analyses were performed to analyze the interaction of ^15N‐labeled Dvl PDZ domain with KY‐02327. […] Plot of chemical shift changes (Δδ) as a function of residue number in molecular ratio 1:20 (E, a red‐colored line indicates the line for Δδ = 0.05). The residues with Δδ greater than 0.05 are visualized as a stick model on the ribbon representation of the Dvl PDZ domain structure (F). • G Molecular docking of KY‐02061 or KY‐02327 to Dvl PDZ domain was analyzed by in silico experiments. The superimposed structure of KY‐02061 (yellow) and KY‐02327 (cyan) on the surface of Dvl PDZ domain (gray) was visualized.

CYP3A4 = CYP3A4 (Homo sapiens, UniProt P08684); assay: in vitro; settings: probe fluorogenic P450 substrates
[3] = system: ex vivo‐cultured calvaria; assay: Ex vivo calvaria culture, thickness; format: cell-based, mouse; settings: 7 days
Method: Figure 1 Identification and characterization of small molecules competing Dvl–CXXC5 binding in vitro • A A scheme for in vitro screening method of small molecules competing Dvl–CXXC5 binding. Briefly, purified Dvl PDZ domain was attached to the polystyrene surface of each well of 96‐well plates. Then, PolyR‐DBM (polyarginine‐conjugated Dvl binding motif tagged with FITC) (Kim et al, 2015) was added to each well and allowed to bind to the Dvl PDZ domain; 10 μM small‐molecule compound was added to each well, and the compounds competing with Dvl PZD‐PolyR‐DBM binding were measured by a microplate reader to screen the compounds reducing fluorescence signal. • B Screening results of compounds competing Dvl–CXXC5 interaction. […] The relative numbers of β‐catenin‐positive nuclei were counted (D). […] The calvaria thicknesses were measured from the images using Image Pro software (F). […] (error bars), and significance was assessed using unpaired Student's t‐test.
Figure 3 Effect of KY‐02061 on Wnt/β‐catenin pathway, osteoblast differentiation, and ex vivo‐cultured calvaria growth • A MC3T3E1 cells were transfected with pTOPFLASH together with pCMV‐β‐gal. […] The luciferase activities of whole‐cell lysates were measured and normalized with β‐galactosidase activities. […] The calvaria thicknesses were measured from the stained sections using Image Pro software (E). […]

Sequence of CYP3A4 (P08684 whole entry): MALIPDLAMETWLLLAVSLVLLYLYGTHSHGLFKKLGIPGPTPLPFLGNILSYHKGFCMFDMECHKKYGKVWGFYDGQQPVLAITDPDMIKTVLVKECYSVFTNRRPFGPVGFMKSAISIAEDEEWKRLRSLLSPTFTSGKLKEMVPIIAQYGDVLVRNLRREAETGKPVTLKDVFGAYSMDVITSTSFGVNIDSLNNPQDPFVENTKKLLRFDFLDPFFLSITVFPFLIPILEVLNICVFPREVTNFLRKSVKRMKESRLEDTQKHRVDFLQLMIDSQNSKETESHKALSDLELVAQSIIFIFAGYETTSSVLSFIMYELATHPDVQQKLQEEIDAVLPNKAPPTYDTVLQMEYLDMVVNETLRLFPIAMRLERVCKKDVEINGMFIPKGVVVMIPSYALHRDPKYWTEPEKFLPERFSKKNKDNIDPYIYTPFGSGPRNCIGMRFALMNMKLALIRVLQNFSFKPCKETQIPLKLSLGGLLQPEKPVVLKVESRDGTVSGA

Structure (SMILES) | binding to Dvl PDZ domain by surface plasmon resonance (Dvl PDZ domain [1]) | Kd (Dvl PDZ domain [2]) | inhibition at 10 µM (CYP3A4) | increase of thickness of ex vivo‐cultured calvaria compared with DMSO‐treated control ([3]; 2 μM) | thickness of ex vivo‐cultured calvaria, dose dependence [3]
CCOC(=O)c1cc2cc(O)ccc2n1CC(=O)NCCN1CCCCC1 [KY‐02327] | binds with Dvl PDZ domain in a dose‐dependent manner | 8.31 ± 0.8 µM | 0% |  | 
CCOC(=O)Cn1c(C(=O)OCC)cc2cc(OS(=O)(=O)c3ccc(C)cc3)ccc21 [KY‐02061] |  |  |  | 51.2% | increased
